Test results from article PMC9866191, “Novel 9-Benzylaminoacridine Derivatives as Dual Inhibitors of Phosphodiesterase 5 and Topoisomerase II for the Treatment of Colon Cancer” (Molecules, 2023).

Experiments:
[1] = tested on: panel of 60 human tumor cell lines; assay: NCI 60-cell line one-dose screen (mean); type: cell-based; conditions: mean of the 60 cell lines, single dose 10^−5 M, read-out: Mean % Growth Inhibition
How it was run: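 At the NCI Developmental Therapeutic Program, each compound is screened once at 10^−5 M across sixty human tumour cell lines. Values are % inhibition.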

SNB-75 = assay: NCI-60 one-dose screen; type: cell-based; conditions: Homo sapiens; SNB-75, CNS Cancer panel; single dose 10^−5 M; read-out: Growth inhibition %
NCI-H322M = assay: NCI-60 one-dose screen; type: cell-based; conditions: Homo sapiens, Non-small cell lung panel, single dose 10^−5 M, read-out: Growth inhibition %
MOLT-4 = assay: NCI-60 one-dose screen; type: cell-based; conditions: Homo sapiens; MOLT-4, Leukemia panel; single dose 10^−5 M; read-out: Growth inhibition %
MDA-MB-468 = assay: NCI-60 one-dose screen; type: cell-based; conditions: Homo sapiens; MDA-MB-468, Breast Cancer panel; single dose 10^−5 M; read-out: Growth inhibition %
MDA-MB-231/ATCC = assay: NCI-60 one-dose screen; type: cell-based; conditions: Homo sapiens, Breast Cancer panel, single dose 10^−5 M, read-out: Growth inhibition %
SK-MEL-28 = assay: NCI-60 one-dose screen; type: cell-based; conditions: Homo sapiens; SK-MEL-28, Melanoma panel; single dose 10^−5 M; read-out: Growth inhibition %
A549/ATCC = assay: NCI-60 one-dose screen; type: cell-based; conditions: Homo sapiens, Non-small cell lung panel, single dose 10^−5 M, read-out: Growth inhibition %
ACHN = assay: NCI-60 one-dose screen; type: cell-based; conditions: Homo sapiens, Renal Cancer panel, single dose 10^−5 M, read-out: Growth inhibition %
NCI-H460 = assay: NCI-60 one-dose screen; type: cell-based; conditions: Homo sapiens; NCI-H460, Non-small cell lung panel; single dose 10^−5 M; read-out: Growth inhibition %
HOP-62 = assay: NCI-60 one-dose screen; type: cell-based; conditions: Homo sapiens; HOP-62, Non-small cell lung panel; single dose 10^−5 M; read-out: Growth inhibition %
NCI-H522 = assay: NCI-60 one-dose screen; type: cell-based; conditions: Homo sapiens; NCI-H522, Non-small cell lung panel; single dose 10^−5 M; read-out: Growth inhibition %
CAKI-1 = assay: NCI-60 one-dose screen; type: cell-based; conditions: Homo sapiens; CAKI-1, Renal Cancer panel; single dose 10^−5 M; read-out: Growth inhibition %
NCI/ADR-RES = assay: NCI-60 one-dose screen; type: cell-based; conditions: Homo sapiens, Ovarian Cancer panel, single dose 10^−5 M, read-out: Growth inhibition %
HCT-116 [2] = assay: NCI-60 one-dose screen; type: cell-based; conditions: Homo sapiens, read-out: Growth inhibition %
HL-60(TB) = assay: NCI-60 one-dose screen; type: cell-based; conditions: Homo sapiens, Leukemia panel, single dose 10^−5 M, read-out: Growth inhibition %
SN12C = assay: NCI-60 one-dose screen; type: cell-based; conditions: Homo sapiens, Renal Cancer panel, single dose 10^−5 M, read-out: Growth inhibition %
HOP-92 = assay: NCI-60 one-dose screen; type: cell-based; conditions: Homo sapiens; HOP-92, Non-small cell lung panel; single dose 10^−5 M; read-out: Growth inhibition %
HS 578T = assay: NCI-60 one-dose screen; type: cell-based; conditions: Homo sapiens, Breast Cancer panel, single dose 10^−5 M, read-out: Growth inhibition %
NCI-H23 = assay: NCI-60 one-dose screen; type: cell-based; conditions: Homo sapiens; NCI-H23, Non-small cell lung panel; single dose 10^−5 M; read-out: Growth inhibition %
OVCAR-4 = assay: NCI-60 one-dose screen; type: cell-based; conditions: Homo sapiens; OVCAR-4, Ovarian Cancer panel; single dose 10^−5 M; read-out: Growth inhibition %
OVCAR-3 = assay: NCI-60 one-dose screen; type: cell-based; conditions: Homo sapiens; OVCAR-3, Ovarian Cancer panel; single dose 10^−5 M; read-out: Growth inhibition %
MCF7 = assay: NCI-60 one-dose screen; type: cell-based; conditions: Homo sapiens; MCF7, Breast Cancer panel; single dose 10^−5 M; read-out: Growth inhibition %
UO-31 = assay: NCI-60 one-dose screen; type: cell-based; conditions: Homo sapiens; UO-31, Renal Cancer panel; single dose 10^−5 M; read-out: Growth inhibition %
MDA-MB-435 = assay: NCI-60 one-dose screen; type: cell-based; conditions: Homo sapiens; MDA-MB-435, Melanoma panel; single dose 10^−5 M; read-out: Growth inhibition %
786-0 = assay: NCI-60 one-dose screen; type: cell-based; conditions: Homo sapiens; 786-0, Renal Cancer panel; single dose 10^−5 M; read-out: Growth inhibition %
IGROV1 = assay: NCI-60 one-dose screen; type: cell-based; conditions: Homo sapiens, IGROV-1; IGROV1, Ovarian Cancer panel; single dose 10^−5 M; read-out: Growth inhibition %
PDE5A = biological target: T1, PDE5A (Homo sapiens, UniProt O76074); assay: Phosphodiesterase 5 HTRF cGMP assay; type: biochemical; conditions: for IC50: means ± S.D. (n = 4), read-out: PDE5 IC50; for inhibition at 10 µM: read-out: PDE5 % Inhibition at 10 μM
T1 construct: purchased BPS Bioscience, San Diego, CA, USA
Description: All the synthesized acridine derivatives were tested for their in vitro ability to inhibit PDE5A at a screening dose of 10 µM.
The enzyme activities of phosphodiesterase 5 (PDE5) were measured using an HTRF cGMP assay kit (Cisbio, Codolet, France). […] Afterward, the HTRF reagent (cGMP-d2 and anti-cGMP-cryptate) was added for 1 h at 25 °C, and PDE activity was assayed on an HTRF reader (Tecan Infinite F200 Pro).

SF-268 = assay: NCI-60 one-dose screen; type: cell-based; conditions: Homo sapiens; SF-268, CNS Cancer panel; single dose 10^−5 M; read-out: Growth inhibition %
HCT-116 [3] = assay: MTT cell proliferation assay, HCT-116; conditions: for % Inhibition at 10 µM: 72 h MTT, means ± SD; for IC50: read-out: IC50 μM, 72 h MTT, means ± SD, three experiments

| Structure (SMILES) | inhibition at 10 µM [1] [%] | inhibition at 10 µM (SNB-75) [%] | inhibition at 10 µM (NCI-H322M) [%] | inhibition at 10 µM (MOLT-4) [%] | inhibition at 10 µM (MDA-MB-468) [%] | inhibition at 10 µM (MDA-MB-231/ATCC) [%] | inhibition at 10 µM (SK-MEL-28) [%] | inhibition at 10 µM (A549/ATCC) [%] | inhibition at 10 µM (ACHN) [%] | inhibition at 10 µM (NCI-H460) [%] | inhibition at 10 µM (HOP-62) [%] | inhibition at 10 µM (NCI-H522) [%] | inhibition at 10 µM (CAKI-1) [%] | inhibition at 10 µM (NCI/ADR-RES) [%] | inhibition at 10 µM (HCT-116 [2]) [%] | inhibition at 10 µM (HL-60(TB)) [%] | inhibition at 10 µM (SN12C) [%] | inhibition at 10 µM (HOP-92) [%] | inhibition at 10 µM (HS 578T) [%] | inhibition at 10 µM (NCI-H23) [%] | other results |
| --- | --- | --- | --- | --- | --- | --- | --- | --- | --- | --- | --- | --- | --- | --- | --- | --- | --- | --- | --- | --- | --- |
| COc1ccc2nc3ccccc3c(NCc3ccccc3)c2c1 [Compound 25, Benzyl-(2-methoxyacridin-9-yl)-amine] | 80 | 54.5 | 70.5 | 92 | 110 | 72.2 | 50.3 | 81.8 | 87.2 | 93.7 | 66.4 | 65.4 | 74.2 | 81.7 | 85.2 | 91.8 | 77.5 | 113 | 74.8 | 78.5 | inhibition at 10 µM (OVCAR-4): 59.2%; inhibition at 10 µM (OVCAR-3): 59%; inhibition at 10 µM (MCF7): 95.7%; inhibition at 10 µM (UO-31): 86.2%; inhibition at 10 µM (MDA-MB-435): 66.2%; inhibition at 10 µM (786-0): 77.7%; inhibition at 10 µM (IGROV1): 83.6%; IC50 (PDE5A): 3.61 ± 1 µM; inhibition at 10 µM (PDE5A): 77.2 ± 3.03%; inhibition at 10 µM (SF-268): 55.8%; % Inhibition at 10 µM (HCT-116 [3]): 59.62 ± 2.66%; IC50 (HCT-116 [3]): 7.43 ± 0.77 µM |
| COc1ccc2nc3ccccc3c(NCc3ccc(F)cc3)c2c1 [Compound 28, (4-Fluorobenzyl)-(2-methoxyacridin-9-yl)-amine] | 92.2 | 76.2 | 77.4 | 99.5 | 124 | 83.3 | 64.7 | 80.3 | 94.3 | 94.5 | 71.8 | 81.8 | 92.8 | 84.9 | 91.1 | 135 | 83 | 111 | 73.9 | 86 | inhibition at 10 µM (OVCAR-4): 86.4%; inhibition at 10 µM (OVCAR-3): 68.8%; inhibition at 10 µM (MCF7): 128%; inhibition at 10 µM (UO-31): 108%; inhibition at 10 µM (MDA-MB-435): 76.1%; inhibition at 10 µM (786-0): 93.2%; inhibition at 10 µM (IGROV1): 91.8%; IC50 (PDE5A): 5.31 ± 1.27 µM; inhibition at 10 µM (PDE5A): 64.2 ± 7.47%; inhibition at 10 µM (SF-268): 65.4%; % Inhibition at 10 µM (HCT-116 [3]): 75.53 ± 2.52%; IC50 (HCT-116 [3]): 2.51 ± 0.53 µM |
